# Source: publication PMC8729770, “In Vitro Evaluation of Antimicrobial Peptides from the Black Soldier Fly (Hermetia Illucens) against a Selection of Human Pathogens” (Microbiology Spectrum, 2022)
# Like-named read-outs stand apart in the source and are kept apart here. Ends that are not written are not given here.
# Legend:
# P. aeruginosa ATCC 15442 = settings: ATCC 15442, 16 h
# B. cenocepacia LMG 16656 = settings: for IC50: read-out: IC50 B. cenocepacia LMG 16656, starting at 32 μM, 10^5 CFU/mL, 48 h, 37°C, resazurin; for MIC B. cenocepacia LMG 16656: visual
# P. aeruginosa ATCC 9027 [1] = test: Inner membrane permeabilization, propidium iodide uptake assay; assay type: cell-based, Pseudomonas aeruginosa; settings: 32 μM versus polymyxin B 16 μM
# Method: To investigate the IM damage induced by the selected AMPs, a PI (Sigma-Aldrich) uptake assay was performed, adapted from […] et al. ([80]). P. aeruginosa ATCC 9027 was grown until the mid-log phase in MHB. The bacteria were centrifuged (3,000 × g, 15 min) and resuspended in 5 mM HEPES (Sigma-Aldrich) buffer (pH 7.4) to an OD600 of 0.5. […] Fluorescence was measured every 5 min during 1 h using a microplate reader (Promega) at λexcitation = 530 nm and λemission = 620. Data were normalized based on the fluorescent signal in the presence of 50 μL HEPES buffer and 150 μL PI bacterial suspension. The assay was carried out in triplicate.
# P. aeruginosa ATCC 9027 [2] = settings: ATCC 9027, 16 h
# [3] = system: P. aeruginosa ATCC 15692 (PAO1); settings: ATCC 15692, 16 h
# P. aeruginosa ATCC 9027 [4] = test: Time-to-kill analysis; assay type: cell-based, Pseudomonas aeruginosa
# Method: To investigate the bactericidal kinetics of the selected AMPs, a time-to-kill analysis was performed as described previously by Mascio et al. ([78]). Briefly, peptide serial dilutions were prepared in 96-well plates (10 μL) and mixed with 190 μL of a P. aeruginosa ATCC 9027 culture of an optical density measured at a wavelength of 600 nm (OD600) of 0.1. Plates were incubated at 37°C and at selected time points (0 h, 0.5 h, 1 h, 2 h, 4 h, and 5 h), aliquots were removed and serially diluted in PBS. The dilutions were plated on TSA and incubated overnight at 37°C. Afterwards, bacterial viability was assessed by performing a standard plate count. Bactericidal activity was defined as a ≥3-log reduction compared with the untreated bacterial control. To avoid carry-over effect of the peptides, the undiluted sample was not plated, leading to a quantification limit of 10^3 CFU/mL ([78]). Bacterial counts were calculated for each AMP concentration at each time point using the average plate count. Afterwards, log10 reductions of the bacterial counts were calculated using the following formula: log10 reduction = log10 (viable microorganisms without AMP treatment/viable microorganisms with AMP treatment). Next, the average log10 reductions and the standard deviations of five independent experiments were calculated and visualized using GraphPad Prism 8.
substance,measurement,setting,value
RWYKKIFKPVEKAVQRVRDGTLQALGVAQQAANVYATAQGAQQQRHA-NH2 [Hill-Cec10],MIC P. aeruginosa ATCC 15442,P. aeruginosa ATCC 15442,4 µM
same,IC50,B. cenocepacia LMG 16656; repeat 1,> 32 µM
same,IC50,B. cenocepacia LMG 16656; repeat 2,> 32 µM
same,MIC B. cenocepacia LMG 16656,B. cenocepacia LMG 16656; repeat 1,>32 µM
same,MIC B. cenocepacia LMG 16656,B. cenocepacia LMG 16656; repeat 2,>32 µM
same,PI uptake (inner membrane permeabilization),P. aeruginosa ATCC 9027 [1],exceeds that of a high dose of polymyxin B
same,IC50,P. aeruginosa ATCC 9027 [2],0.75 µM
same,MBC P. aeruginosa ATCC 15692 (PAO1),[3],16 µM
same,log10 reduction of P. aeruginosa,"P. aeruginosa ATCC 9027 [4]; 8 μM (8 × MIC Hill-Cec1, 4 × MIC Hill-Cec10), after 5 h, mean ± SD of five experiments",2.44 ± 0.46 log10
same,log10 reduction of P. aeruginosa,"P. aeruginosa ATCC 9027 [4]; 16 μM (8 × MIC), after 5 h, mean ± SD of five experiments",4.60 ± 0.94 log10
same,log10 reduction of P. aeruginosa,"P. aeruginosa ATCC 9027 [4]; 16 μM (8 × MIC), always (all experiments)",≥ 3 log10
same,concentration needed to maintain bactericidal activity,"P. aeruginosa ATCC 9027 [4]; time-to-kill, ≥3-log10 reduction vs growth control",≥ 16 µM
